Results as given in publication PMC10748125 (Viruses, 2023).

Columns and labels:
HCoV-NL63 [1] = test: Time-of-addition assay; assay type: cell-based
MRC-5 cells = conditions: human
[2] = Cytotoxicity assay (CCK-8), NCTC clone 929; assay type: cell-based, murine; conditions: mouse, NCTC clone 929 cells; Figure 1C MHV plot label; read-out: NCTC clone CC50 (label inside plot)
in vitro = conditions: human
[3] = Cytotoxicity assay (CCK-8), HCT-8; assay type: cell-based; conditions: human, HCT-8 cells; CCK-8, 48 h treatment
HCoV-NL63 [4] = test: Viral yield reduction (VYR) assay, HCoV-NL63 in Caco-2 cells; conditions: read-out: EC50 (μM) HCoV-NL63, progeny virus 24 h post-infection, mean ± SD
HCoV-OC43 = test: Viral yield reduction (VYR) assay, HCoV-OC43 in HCT-8 cells; conditions: read-out: EC50 (μM) HCoV-OC43, progeny virus 24 h post-infection, mean ± SD
HCoV-229E = test: Viral yield reduction (VYR) assay, HCoV-229E in MRC-5 cells; conditions: read-out: EC50 (μM) HCoV-229E, progeny virus 24 h post-infection, mean ± SD
[5] = Cytotoxicity assay (CCK-8), Caco-2; assay type: cell-based; conditions: human, CCK-8, 48 h treatment
[6] = Cytotoxicity assay (CCK-8), CRFK; assay type: cell-based, feline; conditions: cat, CRFK cells; Figure 1C CCoV plot label; read-out: CRFK CC50 (label inside plot)
[7] = 2 μM VV116, 2 μM Remdesivir, 300 μg/mL heparan sulfate, MOI 0.1, 24 h post-infection

**Q.** Which results are given for heparan sulfate?
**A.** Antiviral activity when added at the post-entry phase (NP Western blot) (HCoV-NL63 [1]; [7]): abolished; Antiviral activity when added during the entry phase (NP Western blot) (HCoV-NL63 [1]; [7]): demonstrated antiviral activity

**Q.** What does the source list for `CCC(CC)COC(=O)[C@H](C)N[P@](=O)(OC[C@H]1O[C@@](C#N)(c2ccc3c(N)ncnn23)[C@H](O)[C@@H]1O)Oc1ccccc1` [Remdesivir]?
**A.** CC50 (MRC-5 cells): > 100 µM; CC50 at 48 h [2]: > 100 µM; Time-of-addition result overall (HCoV-NL63 [1]; 2 μM Remdesivir, compared with VV116): comparable to that obtained for VV116; CC50 (in vitro): > 100 µM; CC50 at 48 h [3]: > 100 µM; EC50 (HCoV-NL63 [4]): 0.495 ± 0.01 µM; EC50 (HCoV-OC43): 0.069 ± 0.001 µM; EC50 (HCoV-229E): 0.056 ± 0.002 µM; CC50 at 48 h [5]: > 100 µM; CC50 at 48 h [6]: > 100 µM
